In US8362047B1, “Anti-cancer agents based on 4-(hetero)Ary1-1,2,5-oxadiazol-3-yl Amino derivatives and a method of making” (U.S. Department of Energy, priority 2010, dated 2013):

test system: DU-145 cells; experiment: Cell proliferation assay (Alamar-Blue) in DU-145 cells; assay type: cell-based; conditions: 72 h; DU-145 human prostate carcinoma cells, 3 days incubation, Alamar-Blue fluorescence
Procedure: Protocol for Cell Proliferation Assay:
This homogeneous assay involves simply adding a single reagent, the Alamar-Blue to the cell culture and measuring the fluorescence intensity (excitation wavelength=530 nm, emission wavelength=590 nm) after an incubation step. The Alamar-Blue reagent utilizes the redox dye resazurin, which is not fluorescent, but upon reduction by metabolically active cells is converted into a highly fluorescent product (resorufin). A decrease in fluorescence in the presence of a test compound indicates reduced proliferation. This change in signal is proportional to the number of viable cells and used as a measure of relative cytotoxicity. Therefore, the fluorescence intensity observed in this assay is a true measure of the viable proliferative cells.
• 2 mM stock of Paclitaxel in DMSO. • DMSO—(dimethylsulfoxide) (Panreac, Cat. number 141954.1611) • Resazurin sodium salt (Sigma, R-7071). 50 mM stock in DMSO. Equipment • Biomek FX Laboratory Automated Workstation (Beckman Coulter Inc., Fullerton, Calif.) • CO2 incubator (VWR Science, USA) • Bright line Hemacytometer (Z359629, Sigma, Ill., USA) Materials • 384-deep well plates (Greiner, No 781270) • 384-well optical bottom tissue culture plates (Greiner, No. 82051-282) Propagation CONDITIONS: 37° C., air 95%; carbon dioxide (CO2) 5%, humidified atmosphere. SUBCULTURING: • Cells were grown in 175 cm^2 flasks to 90-100% of confluency. • Culture media (RPMI-1640 (Paneco, C310)+10% FBS (fetal bovine serum)) was aspirated and cell layer was briefly rinsed with 0.53 mM EDTA solution to remove all traces of serum. • 2 ml of 0.2% trypsin/0.53 mM EDTA (ethylenediaminetetraacetic acid) solution was added to cells. • Flasks were returned to incubator for 5 rain to allow cells detachment • Add 6.0 ml of complete growth medium. • Single cell suspension was created by gently pipetting. • Cells are counted using a Hematocytometer and suspension with desirable cell concentration is prepared.
To test proliferation inhibition DU-145 cells were plated in 384-well plate at the density 4000 cells/well. Next day 4 mM solutions of compounds in DMSO were diluted 100 times in medium and added to cells to final concentration 20 uM (40 ul of cells+40 ul of compounds). Taxol at final concentration 1 uM was used as positive control. Cells were incubated with compounds for 3 days. After that Alamar-Blue was added to cells to a final concentration of 50 uM. After incubation for 4-6 hours at 37° C., fluorescence in plate was read using fluorescence plate reader Wallac 1420 (530 nm excitation filter, 590 nm emission filter). Proliferation inhibition was calculated using formula: % INH=100*((Fnegative−compound signal)/(Fnegative−Fpositive)), • Fnegative—DMSO was added to cells (viable cells) • Fpositive—taxol (1 uM) was added to cells (number of cells at the first day of incubation)

| Compound | IC50 [nM] |
| --- | --- |
| CCCCOc1ccccc1C(=O)Nc1nonc1-c1ccc(OCC)cc1 [Example 9, 2-Butoxy-N^1-[4-(4-ethoxyphenyl)-1,2,5-oxadiazol-3-yl]benzamide] | 850 |
| CCCOc1ccccc1C(=O)Nc1nonc1-c1ccc(OCC)c(C)c1 [Example 11, 2-Propoxy-N^1-[4-(4-ethoxy-3-methylphenyl)-1,2,5-oxadiazol-3-yl]benzamide] | 930 |
| CCOc1ccc(-c2nonc2NC(=O)c2ccccc2OCC)cc1C [Example 10, 2-Ethoxy-N^1-[4-(4-ethoxy-3-methylphenyl)-1,2,5-oxadiazol-3-yl]benzamide] | 860 |
| CCOc1ccc(-c2nonc2NC(=O)c2oc3ccc(Cl)cc3c2C)cc1 [Example 12, 5-chloro-N^2-[4-(4-ethoxyphenyl)-1,2,5-oxadiazol-3-yl]-3-methyl-1-benzofuran-2-carboxamide] | 950 |
| CC(C)Cn1c(-c2nonc2NC(=O)c2ccccc2Cl)nc2ccccc21 [Example 2, 2-Chloro-N^1-[4-(1-isobutyl-1H-1,3-benzimidazol-2-yl)-1,2,5-oxadiazol-3-yl]benzamide] | 280 |
| CCCCn1c(-c2nonc2NC(=O)c2ccccc2Cl)nc2ccccc21 [Example 1, 2-Chloro-N^1-[4-(1-butyl-1H-1,3-benzimidazol-2-yl)-1,2,5-oxadiazol-3-yl]benzamide] | 290 |
| CCCOc1ccccc1C(=O)Nc1nonc1-c1ccc(OC)cc1 [Example 6, 2-Propoxy-N^1-[4-(4-methoxyphenyl)-1,2,5-oxadiazol-3-yl]benzamide] | 850 |

Continued, values first:

| IC50 [nM] | Compound |
| --- | --- |
| 890 | C=CCn1c(-c2nonc2NC(=O)c2ccccc2Cl)nc2ccccc21 [Example 3, 2-Chloro-N^1-[4-(1-allyl-1H-1,3-benzimidazol-2-yl)-1,2,5-oxadiazol-3-yl]benzamide] |
| 120 | CCOc1ccc(-c2nonc2NC(=O)c2ccccc2OCC)cc1 [Example 7, 2-Ethoxy-N^1-[4-(4-ethoxyphenyl)-1,2,5-oxadiazol-3-yl]benzamide] |
| 340 | CCCOc1ccccc1C(=O)Nc1nonc1-c1ccc(OCC)cc1 [Example 8, 2-Propoxy-N^1-[4-(4-ethoxyphenyl)-1,2,5-oxadiazol-3-yl]benzamide] |
| 980 | CCOc1ccccc1C(=O)Nc1nonc1-c1ccc(OC)cc1 [Example 5, 2-Ethoxy-N^1-[4-(4-methoxyphenyl)-1,2,5-oxadiazol-3-yl]benzamide] |

same assay, conditions: DU-145 human prostate carcinoma cells, 3 days incubation, Alamar-Blue fluorescence

| IC50 [nM] | Compound |
| --- | --- |
| 320 | CCOC(=O)Cn1c(-c2nonc2NC(=O)c2ccccc2F)nc2ccccc21 [Example 4, Ethyl 2-(2-4-[(2-fluorobenzoyl)amino]-1,2,5-oxadiazol-3-yl-1H-1,3-benzimidazol-1-yl)acetate] |
